Data on one molecule can be found in patent US20080107609A1, “PULMONARY DISEASE TREATMENT” (Schering Corporation, priority 2003, published 2008).

Assay [1] deals with patients suffering from chronic obstructive pulmonary disease. Briefly: Example 1: randomized double-blind clinical trial of orally inhaled mometasone furoate vs placebo, FEV1 after salbutamol. In kind it is in vivo, human. The conditions noted are these: for ΔFEV1: dry powder inhaler, COPD patients previously on inhaled corticosteroid, average change from study start, post-salbutamol. The protocol: A randomized, double-blind crossover clinical trial was conducted to compare the effects of orally inhaled mometasone furoate and a placebo, in patients suffering from chronic obstructive pulmonary disease. The drug was delivered from a multiple-dose dry powder inhaler charged with a mixture of mometasone furoate and lactose (having a component weight ratio of 1:5.8) in an agglomerated form. Placebo inhaler units contained only the lactose powder. The drug-containing inhalers delivered the following mean amounts of mometasone furoate particles per inhalation, as measured using an Anderson Cascade Impactor (from Thermo Anderson, Smyrna, Ga. U.S.A.) at an air flow rate through the inhaler of 60 L/minute:
Evaluable patients participating in the study numbered 578, all having been diagnosed with COPD of moderate severity, being at least 40 years of age, and also being maintained for at least three months prior to commencement of the study on daily inhalations of a corticosteroid drug (even though there was no regulatory agency-approved COPD therapy using an inhaled corticosteriod). […] The patients were enrolled at a total of 35 sites in 24 countries, and were prescribed two inhalations from the supplied inhaler device each evening for a twelve-month period, with evaluations by a physician after 1, 3, 6, 9, and 12 months of participation. A total of 294 of the patients were randomized to receive inhalers containing the drug, while 284 patients received placebo inhalers. All of the patients were permitted to further use inhaled salbutamol as needed.
Results of the study were as follows, where the ΔFEV1 value represents the average of differences between the patients' FEV1 scores at the beginning of the study and the FEV1 scores at the time of the subsequent measurement, with all of the FEV1 testing being performed after administration of inhaled salbutamol. For each time point, the number of patients remaining in the study is given.
From a statistical analysis of the data, it was determined that the mean change from baseline over the twelve-month period was an increase in ΔFEV1 of 4 mL for patients receiving the mometasone furoate, and a decrease of 36 mL for placebo patients.

Assay [2] has the same test system. Briefly: Example 2: randomized double-blind parallel-group clinical trial of orally inhaled mometasone furoate vs placebo, FEV1 after salbutamol. To be noted: for ΔFEV1: corticosteroid-naive COPD patients, post-salbutamol; for mean change from baseline in ΔFEV1 over the twelve-month period: statistical analysis, increase. In kind it is in vivo, human. The protocol: A randomized double-blind, parallel-group clinical trial was conducted to compare the effects of orally inhaled mometasone furoate and a placebo, in patients suffering from chronic obstructive pulmonary disease. The multiple dose dry powder inhaler and placebo inhaler described in the preceding example were used for this study. A total of 769 patients met the criteria for evaluability, from 95 sites in 11 countries. The patients had not previously been treated with corticosteroids, either inhaled or orally dosed, but otherwise met the criteria of the preceding example. In the study, patients were prescribed either two inhalations from the inhaler each evening, or one inhalation each morning and one inhalation each evening, with a twelve-month treatment duration. Results of the study were as follows, where the ΔFEV1 value represents the average of differences between the patients' FEV1 scores at the beginning of the study and the FEV1 scores at the time of the subsequent measurement, with all of the FEV1 testing being performed after administration of inhaled salbutamol. For each time point, the number of patients remaining in the study is given.

Regarding `C[C@@H]1C[C@H]2[C@@H]3CCC4=CC(=O)C=C[C@]4(C)[C@@]3(Cl)[C@@H](O)C[C@]2(C)[C@@]1(OC(=O)c1ccco1)C(=O)CCl` [mometasone furoate, 9α,21-Dichloro-11β,17-dihydroxy-16α-methylpregna-1,4-diene-3,20-dione 17-(2-furoate)], the “ΔFEV1” value in assay [1] (1 month, two inhalations each evening) was 5 mL; in assay [1] (3 months, two inhalations each evening), 9 mL; in assay [1] (6 months, two inhalations each evening) it was -2 mL; in assay [1] (9 months, two inhalations each evening) it was 22 mL; in assay [1] (12 months, two inhalations each evening), 7 mL; in assay [2] (Once Daily (two inhalations each evening), 1 month), 66 mL. For the same molecule, the “ΔFEV1” value was found to be 57 mL in assay [2] (Once Daily (two inhalations each evening), 3 months); 44 mL in assay [2] (Once Daily (two inhalations each evening), 6 months); 37 mL in assay [2] (Once Daily (two inhalations each evening), 9 months); 38 mL in assay [2] (Once Daily (two inhalations each evening), 12 months); 72 mL in assay [2] (Twice Daily (one inhalation each morning and one each evening), 1 month); 79 mL in assay [2] (Twice Daily (one inhalation each morning and one each evening), 3 months). In addition, the “ΔFEV1” value in assay [2] (Twice Daily (one inhalation each morning and one each evening), 6 months) was 36 mL; in assay [2] (Twice Daily (one inhalation each morning and one each evening), 9 months), 58 mL; in assay [2] (Twice Daily (one inhalation each morning and one each evening), 12 months), 31 mL. The “difference between treatments (drug vs placebo) in mean ΔFEV1 change” value in assay [1] (longitudinal analysis of variance model, twelve-month period) was “statistically significant”. The “mean change from baseline in ΔFEV1 over the twelve-month period” value in assay [1] (statistical analysis (longitudinal analysis of variance), two inhalations each evening, increase) turned out to be 4 mL; in assay [2] (dosed once daily) it was 50 mL; in assay [2] (dosed twice daily), 53 mL. Moreover, the “pulmonary function over the trial period (FIG. 1)” value in assay [1] (twelve months, two inhalations each evening) is “generally maintained or slightly improved their pulmonary function”. Moreover, the “pulmonary function over the trial period (FIG. 2)” value in assay [2] (twelve months, once daily and twice daily) was “generally improved their pulmonary function”. In addition, the “comparison of both mometasone furoate treatments (once and twice daily) with placebo” value in assay [2] (twelve-month period, ΔFEV1) is recorded as “statistically significantly superior to the placebo treatment”.
